Source: ChEMBL document CHEMBL4828738, “Design, synthesis and evaluation of novel 5-phenylthiophene derivatives as potent fungicidal of Candida albicans and antifungal reagents of fluconazole-resistant fungi” (Eur J Med Chem, 2021)
Converted amounts (≈) assume the structure as drawn.

Key:
Candida albicans [1] = assay: Antifungal activity against Candida albicans CPCC400616 assessed as fungal growth inhibition by CLSI protocol based method; assay type: functional
Candida albicans [2] = assay: Antifungal activity against fluconazole-resistant Candida albicans 100 assessed as fungal growth inhibition by CLSI protocol based method
Cryptococcus neoformans = assay: Antifungal activity against Cryptococcus neoformans CGMCC2.3161 assessed as fungal growth inhibition by CLSI protocol based method; assay type: functional
Candida albicans [3] = assay: Antifungal activity against fluconazole-resistant Candida albicans 904 assessed as fungal growth inhibition by CLSI protocol based method
Nakaseomyces glabratus = assay: Antifungal activity against Candida glabrata assessed as fungal growth inhibition by CLSI protocol based method; assay type: functional
Candida tropicalis = assay: Antifungal activity against Candida tropicalis CGMCC 2.3739 assessed as fungal growth inhibition by CLSI protocol based method; assay type: functional
Candida albicans [4] = assay: Antifungal activity against Candida albicans ATCC SC5314 assessed as fungal growth inhibition by CLSI protocol based method; assay type: functional
Candida albicans [5] = assay: Antifungal activity against fluconazole-resistant Candida albicans 103 assessed as fungal growth inhibition by CLSI protocol based method
Candida albicans [6] = assay: Antifungal activity against fluconazole-resistant Candida albicans 901 assessed as fungal growth inhibition by CLSI protocol based method
Candida albicans [7] = assay: Antifungal activity against fluconazole-resistant Candida albicans 311 assessed as fungal growth inhibition by CLSI protocol based method
Candida parapsilosis = assay: Antifungal activity against Candida parapsilosis GIM2.190 assessed as fungal growth inhibition by CLSI protocol based method; assay type: functional; conditions: Lodderomyces parapsilosis
Pichia kudriavzevii = assay: Antifungal activity against Candida krusei GIM2.1 assessed as fungal growth inhibition by CLSI protocol based method; assay type: functional
Candida albicans [8] = assay: Antifungal activity against fluconazole-resistant Candida albicans 632 assessed as fungal growth inhibition by CLSI protocol based method

With `O=C(NC(Cn1ccnc1)C(=O)c1cccc(Cl)c1)c1ccc(-c2ccc(Cl)cc2)s1` (centres undefined) the MIC (Candida albicans [1]) was 0.25 µg/mL (≈ 0.531 µM), the MIC (Candida albicans [2]) was 2 µg/mL (≈ 4.25 µM) and the MIC (Cryptococcus neoformans) was over 64 µg/mL. For the same molecule, the MIC (Candida albicans [3]) was over 64 µg/mL, the MIC (Nakaseomyces glabratus) was 0.5 µg/mL (≈ 1.06 µM) and the MIC (Candida tropicalis) was 1 µg/mL (≈ 2.13 µM). The MIC (Candida albicans [4]) was under 0.03 µg/mL, the MIC (Candida albicans [5]) was 4 µg/mL (≈ 8.5 µM) and the MIC (Candida albicans [6]) was 8 µg/mL (≈ 17 µM). For the same molecule, the MIC (Candida albicans [7]) was 4 µg/mL (≈ 8.5 µM), the MIC (Candida parapsilosis) was 0.5 µg/mL (≈ 1.06 µM) and the MIC (Pichia kudriavzevii) was over 64 µg/mL. For the same molecule, the MIC (Candida albicans [8]) was over 64 µg/mL.
For `O=C(NC(Cn1ccnc1)C(=O)c1ccccc1)c1ccc(-c2cccc(Cl)c2)s1` (centres undefined), the MIC (Candida albicans [1]) was 32 µg/mL (≈ 73.4 µM), the MIC (Cryptococcus neoformans) was over 64 µg/mL and the MIC (Nakaseomyces glabratus) was over 64 µg/mL. It also gave an MIC (Candida tropicalis) of 32 µg/mL (≈ 73.4 µM), an MIC (Candida albicans [4]) of 16 µg/mL (≈ 36.7 µM) and an MIC (Candida parapsilosis) of over 64 µg/mL. For the same molecule, the MIC (Pichia kudriavzevii) was over 64 µg/mL.
`COc1ccc(-c2ccc(C(=O)NC(Cn3ccnc3)C(=O)c3ccccc3)s2)cc1` (centres undefined) was tested, and the MIC (Candida albicans [1]) was 1 µg/mL (≈ 2.32 µM), the MIC (Candida albicans [2]) was 2 µg/mL (≈ 4.63 µM) and the MIC (Cryptococcus neoformans) was over 64 µg/mL. For the same molecule, the MIC (Candida albicans [3]) was 4 µg/mL (≈ 9.27 µM), the MIC (Nakaseomyces glabratus) was over 64 µg/mL and the MIC (Candida tropicalis) was 2 µg/mL (≈ 4.63 µM). For the same molecule, the MIC (Candida albicans [4]) was 0.125 µg/mL (≈ 0.29 µM), the MIC (Candida albicans [5]) was 4 µg/mL (≈ 9.27 µM) and the MIC (Candida albicans [6]) was 2 µg/mL (≈ 4.63 µM). The MIC (Candida albicans [7]) was 4 µg/mL (≈ 9.27 µM), the MIC (Candida parapsilosis) was over 64 µg/mL and the MIC (Pichia kudriavzevii) was over 64 µg/mL. It also gave an MIC (Candida albicans [8]) of 8 µg/mL (≈ 18.5 µM).
`O=C(NC(Cn1ccnc1)C(=O)c1ccccc1)c1cc2ccccc2s1` (centres undefined) was tested, and the MIC (Candida albicans [1]) was over 64 µg/mL, the MIC (Cryptococcus neoformans) was over 64 µg/mL and the MIC (Nakaseomyces glabratus) was over 64 µg/mL. For the same molecule, the MIC (Candida tropicalis) was over 64 µg/mL, the MIC (Candida albicans [4]) was over 64 µg/mL and the MIC (Candida parapsilosis) was over 64 µg/mL. The MIC (Pichia kudriavzevii) was over 64 µg/mL.
In the case of `N#Cc1ccc(-c2ccc(C(=O)NC(Cn3ccnc3)C(=O)c3ccccc3)s2)cc1` (centres undefined), the MIC (Candida albicans [1]) is reported as over 64 µg/mL, the MIC (Cryptococcus neoformans) is reported as over 64 µg/mL and the MIC (Nakaseomyces glabratus) is reported as over 64 µg/mL. It also gave an MIC (Candida tropicalis) of over 64 µg/mL, an MIC (Candida albicans [4]) of over 64 µg/mL and an MIC (Candida parapsilosis) of over 64 µg/mL. For the same molecule, the MIC (Pichia kudriavzevii) was over 64 µg/mL.
In the case of `Cc1ccc(-c2ccc(C(=O)NC(Cn3ccnc3)C(=O)c3ccccc3)s2)cc1` (centres undefined), the MIC (Candida albicans [1]) is reported as 1 µg/mL (≈ 2.41 µM), the MIC (Cryptococcus neoformans) is reported as over 64 µg/mL and the MIC (Nakaseomyces glabratus) is reported as over 64 µg/mL. It also gave an MIC (Candida tropicalis) of 2 µg/mL (≈ 4.81 µM), an MIC (Candida albicans [4]) of 0.125 µg/mL (≈ 0.301 µM) and an MIC (Candida parapsilosis) of 8 µg/mL (≈ 19.3 µM). For the same molecule, the MIC (Pichia kudriavzevii) was over 64 µg/mL.
With `O=C(NC(Cn1ccnc1)C(=O)c1ccccc1)c1ccc(-c2cccc(F)c2)s1` (centres undefined) the MIC (Candida albicans [1]) was 64 µg/mL (≈ 153 µM), the MIC (Cryptococcus neoformans) was over 64 µg/mL and the MIC (Nakaseomyces glabratus) was over 64 µg/mL. The MIC (Candida tropicalis) was over 64 µg/mL, the MIC (Candida albicans [4]) was 8 µg/mL (≈ 19.1 µM) and the MIC (Candida parapsilosis) was over 64 µg/mL. For the same molecule, the MIC (Pichia kudriavzevii) was over 64 µg/mL.
`O=C(NC(Cn1ccnc1)C(=O)c1ccccc1)c1ccc(-c2ccc(C(F)(F)F)cc2)s1` (centres undefined) gave an MIC (Candida albicans [1]) of 2 µg/mL (≈ 4.26 µM), an MIC (Candida albicans [2]) of over 64 µg/mL and an MIC (Cryptococcus neoformans) of over 64 µg/mL. It also gave an MIC (Candida albicans [3]) of 2 µg/mL (≈ 4.26 µM), an MIC (Nakaseomyces glabratus) of 8 µg/mL (≈ 17 µM) and an MIC (Candida tropicalis) of 0.125 µg/mL (≈ 0.266 µM). It also gave an MIC (Candida albicans [4]) of 0.125 µg/mL (≈ 0.266 µM), an MIC (Candida albicans [5]) of 2 µg/mL (≈ 4.26 µM) and an MIC (Candida albicans [6]) of 4 µg/mL (≈ 8.52 µM). It also gave an MIC (Candida albicans [7]) of 4 µg/mL (≈ 8.52 µM), an MIC (Candida parapsilosis) of 4 µg/mL (≈ 8.52 µM) and an MIC (Pichia kudriavzevii) of 16 µg/mL (≈ 34.1 µM). The MIC (Candida albicans [8]) was over 64 µg/mL.
